Results reported in EP1362591A1, “Use of a composition containing 5-androstene-3 beta, 17-alpha diol” (LORIA, Roger M., priority 1996, dated 1997).

Experiments:
P388D1 cells = assay: Growth of lymphoid neoplasm cells in the presence of RU486; assay type: cell-based; conditions: Example 8; RU486 at 0.5 µM and 1.0 µM
Procedure: (§1) For cell proliferation assays, cell suspensions were prepared by trypsinization of cells from cultures prepared in accord with methods described above. Cell viability was determined by trypan blue exclusion. The cells were then seeded in flat-bottom 96-well microtiter plates at a density of 2X10^3 cells/well and were allowed to rest for 48 hours in order to adhere. Non-adherent dead cells were removed by aspiration. Cells were then grown in media without phenol red. Some of the media contained supplements as indicated above. The active agents or vehicle control were added to the media. The cells were then grown for six days. Media was changed on the samples every 48 hours. On day 6, cells were pulsed with 1 µCi[…] for the last 6 hours of incubation before harvesting onto glass filter using a HPD cell harvester (Cambridge Technology, Watertown, Massachusetts) and counted on a KLB scintillation counter.
Effect of αAED on growth of lymphoid neoplasm (P388D1 cells obtained from the American Type Culture Collection) in the presence of RU486 at concentration of 0.5 µM and 1.0 µM was studied in accord with the methods described above.

ZR-75-1 cells [1] = assay: Cell count and viability by trypan blue exclusion; assay type: cell-based, human
Procedure: (§2) Cells were first seeded at initial density of 1x10^5 cells per ml in quadruplicates in 24 multi-well flat bottom plates (Costar). Cells were then allowed to adhere and grow in phenol red-free […] media supplemented with 10 % heat-inactivated fetal calf serum (FCS), 200 µM L-glutamine, 10 mM HEPES, 2.5 U/ml penicillin and 2.5 µg/ml streptomycin in 5% CO2 at 37°C. After 48 hours, four wells were sacrificed and counted to determine plating efficiency. In the remaining wells, medium was removed by aspiration and cells in each well were exposed to the media containing the specified steroid. The controls containing only medium or medium with vehicle were also prepared. In all samples, medium was changed every 48 hours. At the pre-established time-point. Cells were removed by trypsinization and washed. Cell number and viability were determined by trypan blue exclusion using a hemocytometer. Parallel cultures were also run to determine cell proliferation.
Initial tests were carried out to determine the optimal (maximal) dose of αAED required to inhibit growth of the ZR-75-1 cells in in vitro as determined by tritiated tymidine incorporation. […] To ensure that inhibition was not due to cytotoxicity, cell count and viability were assessed by trypan blue exclusion.

RAW 264.7 = assay: Proliferation of murine macrophage myeloma cells; assay type: cell-based; conditions: Example 9
Procedure: as §1
Effects of αAED at doses of 50 ηM and 100 ηM doses on murine macrophage myeloma cells (RAW 264.7, obtained from the American Type Culture Collection) was studied.

ZR-75-1 cells [2] = assay: Cell proliferation assay, tritiated thymidine incorporation; assay type: cell-based, human; conditions: for cell proliferation: Example 1, six day period
Procedure: The βAED, 17 beta-oestradiol and tamoxifen were obtained from Sigma Chemical Company (St. Louis, Missouri). The αAED and Flutamide were obtained from Steriloid, Inc. (Walton, New Hampshire) and Schering Corporation (Kenilworth, New Jersey), respectively. All steroids except βAED were dissolved in ethanol. βAED was dissolved in DMSO:ETHOL (1:1 v/v). Stock solutions were filtered and kept at 4°C. For testing, stock solutions were diluted in media immediately before use. The final concentration of vehicle was always ≤ 0.2% in all samples, and this concentration had no significant cytotoxic effect on the human breast cell cancer cell line designated ZR-75-1 (American Type Culture Collection) as determined by trypan blue exclusion.
The ZR-75-1 cell line (passage 89) was obtained from the American Type Culture Collection (Rockville, Maryland). The cells were cultured in RPMI-1640 medium containing 10% heat-inactivated fetal calf serum, 200 µM L-glutamine, […], 1.5 U/ml penicillin, and 1.5 µg/ml streptomycin in 5% CO2 at 37°C. The cells were passaged twice weekly.
as §2, §1

Structure (SMILES)	growth of lymphoid neoplasm in combination with RU486 (P388D1 cells)	cytotoxicity (cell count and viability) (ZR-75-1 cells [1])	proliferation (RAW 264.7; 50 ηM)	proliferation (RAW 264.7; 100 ηM)	cell proliferation (ZR-75-1 cells [2]; 6.25 ηM)	cell proliferation (ZR-75-1 cells [2]; 25 ηM)	cell proliferation (ZR-75-1 cells [2]; 50 ηM)	proliferation of cells in the presence of βAED (ZR-75-1 cells [2]; Example 2, varied αAED with βAED constant at 2.5 ηM)	proliferation in the presence of estradiol (ZR-75-1 cells [2]; Example 3, higher doses of αAED with 1 ηM estradiol, 6 day period)	antiproliferative effects in the presence of Flutamide (ZR-75-1 cells [2]; Example 4, ≥6.25 ηM αAED)	synergism with RU486 (ZR-75-1 cells [2]; Example 5, RU486 1 µM)	proliferation of cells in the presence of RU486 (ZR-75-1 cells [2]; Example 5, concentrations of αAED with 0.5 µM RU486)	IC50 (ZR-75-1 cells [2]; Homo sapiens, dose and time-dependent inhibition of ZR-75-1 growth, read-out: half-maximal dose (anti-proliferative effect))	growth of ZR-75-1 cells (ZR-75-1 cells [2]; concentration of 25 ηM or greater)	proliferation of ZR-75-1 cells (ZR-75-1 cells [2]; concentrations between 6.25 and 12.5 ηM, P<0.01 vs vehicle control)	maximal dose (anti-proliferative effect) (ZR-75-1 cells [2]; dose and time-dependent inhibition of ZR-75-1 growth)	effect on the growth of cells (ZR-75-1 cells [2]; doses ranging from 3.13 ηM to 50 ηM, compared to vehicle control after 6 days)	antiproliferative effect on the growth of ZR-75-1 cells (ZR-75-1 cells [2]; alone at 100 ηM)
C[C@]12CC[C@H]3[C@@H](CC=C4C[C@@H](O)CC[C@@]43C)[C@@H]1CC[C@H]2O [αAED, 5-androstene 3ß,17α diol]	increased effectiveness over use of one agent	not toxic to the cells	significant inhibition of proliferation	significant inhibition of proliferation	increasing proliferation	decreasing cell proliferation	marked decrease	decreased proliferation at all concentrations	suppressed proliferation even in the presence of estradiol	greatly enhanced	even greater	synergistic action to decrease proliferation of cells	50 nM	significantly inhibited the growth	stimulated proliferation	100 ηM	biphasic effect	–
C[C@]12CC[C@H]3[C@@H](CC=C4C[C@@H](O)CC[C@@]43C)[C@@H]1CC[C@@H]2O [βAED, 5-androstene 3ß,17ß diol, reference compound]	–	–	–	–	–	–	–	–	–	–	–	–	–	–	–	–	–	did not have any antiproliferative effect
